In patent US20020173505A1, “Medicament” (priority 1999, published 2002):

Legend:
[1] = system: human in vitro preparations (airway smooth muscle); test: spontaneous tone in human in vitro airway preparations; conditions: for nature of the relaxation of spontaneous tone (transient or persistent): human in vitro preparations
Procedure: (§1) The examinations of the spontaneous tone were performed in accordance with the methods disclosed in the thesis “Regulation of spontaneous tone in guinea pig trachea” by S.Skogvall, Department of Physiological Sci- ences, Lund University, 1999, which is incorporated herein by reference. As evidenced by these examinations, the airways normally display a highly regular type of oscillating tone if exposed to physiological conditions, and the oscillating tone can be reversibly affected by administration of various substances- When the epithelium is removed, the preparations instead display a strong, smooth type of tone.
Similar experiments have also been performed on human in vitro preparations, from patients undergoing lobecotomy or pulmectomy due to lung cancer.
Human airways are generally considered to display only a weak contraction when exposed to S-HT. Nevertheless, examinations on spontaneous tone on human in vitro preparations have shown that 5-HT indeed has a contractile component also in this tissue. However, this contraction takes a longer time to develop than in guinea pig and the contractile effect is seen as a termination of the relaxation, rather than an increase of tone from the baseline. In guinea pig trachea, the contraction reaches a maximum after approximately 10 min, and this is followed by a considerable reduction of tone. However, human preparations instead induce a maximum relaxing effect after 5-10 min, which disappears gradually during the following 30-45 min (see FIG. 1).

[2] = system: denuded airway smooth muscle preparations from the guinea-pig; test: spontaneous tone of denuded guinea-pig airway smooth muscle preparations
Description: The subject-matter of the present invention was inter alia deduced from animal experiments, where a specific behavior of the airway smooth muscle called “spontaneous tone” was examined. The spontaneous tone, which involves a spontaneous continuous contraction in the airway smooth muscle, was studied due to a suspicion that detective regulation of the spontaneous tone could be an important cause of the bronchoconstriction observed in asthmatic patients.
as §1
A contractile effect of serotonin on airway smooth muscle has been reported in e.g. SkQgvall, S., Korsgren, M-, Grampp, W., J. Appl. Phys., 86:789-798, 1999. […] The spontaneous tone returned to approximately its normal level when the preparations were again exposed to control conditions.

SMILES | nature of the relaxation of spontaneous tone (transient or persistent) ([1]; FIG. 1) | effect on spontaneous tone ([1]; 1 μM, tissue from patients undergoing lobectomy or pulmectomy) | time over which the relaxing effect gradually disappears after the maximum ([1]; human preparations, FIG. 1) [min] | time to maximum relaxing effect ([1]; human preparations, FIG. 1) [min] | average force level of spontaneous tone ([2]; 1 μM added, denuded preparations with strong, smooth spontaneous tone) | spontaneous tone, level relative to force in control (drug-free) conditions ([2]; 10 μM added, denuded preparations) | time to maximum contraction ([2]; guinea pig trachea)
NCCc1c[nH]c2ccc(C(N)=O)cc12 [5-carboxiamidotryptamine, 5-carboxamidotryptamine] | persistent and not transient | – | – | – | – | – | –
COc1cc(N)c(Cl)cc1C(=O)NC[C@@H]1CCN2CCC[C@@H]12 [SC 53116, 4-amino-5-chloro-N-[[lS, 7aS)-hexahydro-1H-pyrrolizin-l-yl]methyll-2-methoxy-benzamide] | persistent and not transient | – | – | – | – | – | –
NCCc1c[nH]c2ccc(O)cc12 [serotonin, 3-(P-aminoethyl)-5-hydroxyindole] | transient relaxation | significant relaxation | 30 to 45 | 5 to 10 | increased significantly | about half | approximately 10 min
